# Experimental data from US12503471B2, “Triazatricycle compounds for the treatment of autoimmune disease” (Hoffmann-La Roche Inc., priority 2019, dated 2025).
# Biological target: T1, hERG channel (Homo sapiens, UniProt Q12809)
# T1 construct: expressed in transfected cells; host or cells: CHO (Chinese hamster ovary)
# Test: hERG channel inhibition assay
# Type: cell-based
# Conditions: whole-cell patch-clamp; for IC50: CHO cells expressing hERG; for IC20: human, CHO cells stably expressing hERG
# Method: hERG Channel Inhibition Assay
# The hERG K^+ channels were cloned in humans and stably expressed in a CHO (Chinese hamster ovary) cell line. CHOhERG cells were used for patch-clamp (voltage-clamp, whole-cell) experiments. Cells were stimulated by a voltage pattern to activate hERG channels and conduct IKhERG Currents (rapid delayed outward rectifier potassium current of the hERG channel). After the cells were stabilized for a few minutes, the amplitude and kinetics of IKhERG were recorded at a stimulation frequency of 0.1 Hz (6 bpm). Thereafter, the test compound was added to the preparation at increasing concentrations. For each concentration, an attempt was made to reach a steady-state effect, usually, this was achieved within 3-10 min at which time the next highest concentration was applied. The amplitude and kinetics of IKhERG are recorded in each concentration of the drug which were compared to the control values (taken as 100%). (references: Redfern W S, Carlsson L, Davis A S, Lynch W G, MacKenzie I, Palethorpe S, Siegl P K, Strang I, Sullivan A T, Wallis R, Camm A J, Hammond T G. 2003; Relationships between preclinical cardiac electrophysiology, clinical Q T interval prolongation and torsade de pointes for a broad range of drugs: evidence for a provisional safety margin in drug development. Cardiovasc. Res. 58:32-45, Sanguinetti M C, Tristani-Firouzi M. 2006; hERG potassium channels and cardiac arrhythmia. Nature 440:463-469, Webster R, Leishman D, Walker D. 2002; Towards a drug concentration effect relationship for QT prolongation and torsades de pointes. Curr. Opin. Drug Discov. Devel. 5:116-26).
# T1 sequence (Q12809 whole entry): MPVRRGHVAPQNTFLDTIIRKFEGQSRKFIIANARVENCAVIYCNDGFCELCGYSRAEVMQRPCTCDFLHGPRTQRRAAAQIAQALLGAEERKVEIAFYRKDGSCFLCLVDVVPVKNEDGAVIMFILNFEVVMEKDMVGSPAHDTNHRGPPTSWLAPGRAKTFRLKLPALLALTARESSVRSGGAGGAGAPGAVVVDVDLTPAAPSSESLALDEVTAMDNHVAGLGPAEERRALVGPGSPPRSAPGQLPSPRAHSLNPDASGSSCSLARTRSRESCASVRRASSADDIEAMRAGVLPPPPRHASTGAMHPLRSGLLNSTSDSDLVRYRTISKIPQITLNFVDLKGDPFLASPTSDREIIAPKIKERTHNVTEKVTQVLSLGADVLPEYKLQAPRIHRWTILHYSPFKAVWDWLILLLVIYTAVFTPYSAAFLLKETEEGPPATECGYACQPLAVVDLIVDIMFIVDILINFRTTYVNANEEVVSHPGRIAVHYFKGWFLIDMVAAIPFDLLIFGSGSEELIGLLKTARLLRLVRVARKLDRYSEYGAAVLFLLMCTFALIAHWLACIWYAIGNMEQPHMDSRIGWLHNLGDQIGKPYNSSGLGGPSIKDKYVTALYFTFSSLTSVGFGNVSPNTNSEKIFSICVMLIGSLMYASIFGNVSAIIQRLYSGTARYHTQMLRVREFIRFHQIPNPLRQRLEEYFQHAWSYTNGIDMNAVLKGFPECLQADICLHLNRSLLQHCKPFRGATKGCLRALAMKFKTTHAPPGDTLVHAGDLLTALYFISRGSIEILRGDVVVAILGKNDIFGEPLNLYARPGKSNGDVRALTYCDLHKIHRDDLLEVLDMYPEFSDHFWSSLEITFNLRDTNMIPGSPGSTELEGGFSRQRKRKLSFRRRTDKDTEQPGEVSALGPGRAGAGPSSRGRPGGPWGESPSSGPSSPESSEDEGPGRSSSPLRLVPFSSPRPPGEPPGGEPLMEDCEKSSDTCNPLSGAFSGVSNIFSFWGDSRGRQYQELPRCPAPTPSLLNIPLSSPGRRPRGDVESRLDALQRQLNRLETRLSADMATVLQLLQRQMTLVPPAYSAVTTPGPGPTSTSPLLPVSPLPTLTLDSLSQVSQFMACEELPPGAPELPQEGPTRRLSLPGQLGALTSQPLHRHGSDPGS
SMILES,IC50,IC20
"C[C@@H]1CN(c2ccc(C#N)c3ncccc23)C[C@@H]2c3ccc(N4CC5CNCC(C4)O5)nc3CN12 [Example 6, 5-[(2S,6R)-6-methyl-11-(9-oxa-3,7-diazabicyclo[3.3.1]nonan-3-yl)-4,7,10-triazatricyclo[7.4.0.02,7]trideca-1(9),10,12-trien-4-yl]quinoline-8-carbonitrile]",> 20 µM,> 10 µM
"[2H]c1ccc2c(N3C[C@@H](C)N4Cc5nc(N6CC[C@@](C)(N)C6)ccc5[C@H]4C3)ccc(C#N)c2n1 [Example 7, 5-[(2S,6R)-11-[(3R)-3-amino-3-methyl-pyrrolidin-1-yl]-6-methyl-4,7,10-triazatricyclo[7.4.0.02,7]trideca-1(9),10,12-trien-4-yl]-2-deuterio-quinoline-8-carbonitrile]",> 20 µM,> 10 µM
"[2H]c1ccc2c(N3C[C@@H](C)N4Cc5nc(N6CC[C@](C)(N)C6)ccc5[C@H]4C3)ccc(C#N)c2n1 [Example 8, 5-[(2S,6R)-11-[(3S)-3-amino-3-methyl-pyrrolidin-1-yl]-6-methyl-4,7,10-triazatricyclo[7.4.0.02,7]trideca-1(9),10,12-trien-4-yl]-2-deuterio-quinoline-8-carbonitrile]",> 20 µM,5.5 µM
"[2H]c1ccc2c(N3C[C@@H](C)N4Cc5nc(N6CCC7(CNC7)C6)ccc5[C@H]4C3)ccc(C#N)c2n1 [Example 9, 2-Deuterio-5-[(2S,6R)-11-(2,6-diazaspiro[3.4]octan-6-yl)-6-methyl-4,7,10-triazatricyclo[7.4.0.02,7]trideca-1(9),10,12-trien-4-yl]quinoline-8-carbonitrile]",> 20 µM,> 10 µM
"[2H]c1ccc2c(N3C[C@@H](C)N4Cc5nc(N6C[C@H]7C[C@@H]6CN7)ccc5[C@H]4C3)ccc(C#N)c2n1 [Example 17, 2-Deuterio-5-[(2S,6R)-11-[(1R,4R)-2,5-diazabicyclo[2.2.1]heptan-2-yl]-6-methyl-4,7,10-triazatricyclo[7.4.0.02,7]trideca-1(9),10,12-trien-4-yl]quinoline-8-carbonitrile]",> 20 µM,> 10 µM
"C[C@@H]1CN(c2ccc(C#N)c3ncccc23)C[C@@H]2c3ccc(N4CCCNCC4)nc3CN12 [Example 20, 5-[(2S,6R)-11-(1,4-diazepan-1-yl)-6-methyl-4,7,10-triazatricyclo[7.4.0.02,7]trideca-1(9),10,12-trien-4-yl]quinoline-8-carbonitrile]",> 20 µM,> 10 µM
